This note sets out measurements from patent US9518282B2, “Method for utilizing monoterpene glycosyltransferase” (SUNTORY HOLDINGS LIMITED, priority 2010, dated 2016).

In assay [1] the target is T1, UGT85A3 (Arabidopsis thaliana, UniProt Q9LMF1).
T1 sequence (Q9LMF1 1-488): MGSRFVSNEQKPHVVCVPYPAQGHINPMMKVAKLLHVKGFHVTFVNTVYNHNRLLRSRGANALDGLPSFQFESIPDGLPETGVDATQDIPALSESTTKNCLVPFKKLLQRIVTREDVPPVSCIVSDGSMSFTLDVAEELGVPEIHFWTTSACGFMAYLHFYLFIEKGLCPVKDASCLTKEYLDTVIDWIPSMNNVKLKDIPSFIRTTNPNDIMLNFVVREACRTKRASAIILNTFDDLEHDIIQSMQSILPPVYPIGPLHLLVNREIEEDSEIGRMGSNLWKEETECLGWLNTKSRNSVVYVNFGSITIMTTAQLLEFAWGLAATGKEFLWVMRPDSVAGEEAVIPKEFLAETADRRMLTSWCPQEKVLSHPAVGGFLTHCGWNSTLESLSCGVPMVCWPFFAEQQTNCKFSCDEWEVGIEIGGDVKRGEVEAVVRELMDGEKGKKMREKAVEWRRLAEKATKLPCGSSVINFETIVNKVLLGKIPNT
Nature of the assay: Glycosylation activity of purified UGT85A3 on sugar acceptor substrates, LC-MS. The settings on record: for glycosylation activity of UGT85A3 on the sugar acceptor (product detected by LC-MS): 2 mM UDP-glucose, 1.5 mM sugar acceptor substrate, pH 7.5, 30° C., 1 hour. The class given is biochemical. Also noted: made in house; host or cells: E. coli BL21(DE3). The method, then:
Standard enzyme reaction conditions are as follows. […] LC Conditions Column: CAPCELL PAK C18-UG120 (2.0 mm I.D.×150 mm) Mobile phase: A: water (containing 0.05% formic acid), B: acetonitrile Gradient: linear concentration gradient of B from 15% to 90% over 15 minutes Flow rate: 0.2 ml per minute Column oven: 40° C. MS Conditions ESI (negative mode) SIM mode: (m/z 315, 338, 361, 363, 331, 354, 377, 429, etc.)

Assay [2] concerns the target T2, UGT85A1 (Arabidopsis thaliana, UniProt Q9SK82).
T2 construct: made in house; host or cells: E. coli
T2 sequence (Q9SK82 1-489): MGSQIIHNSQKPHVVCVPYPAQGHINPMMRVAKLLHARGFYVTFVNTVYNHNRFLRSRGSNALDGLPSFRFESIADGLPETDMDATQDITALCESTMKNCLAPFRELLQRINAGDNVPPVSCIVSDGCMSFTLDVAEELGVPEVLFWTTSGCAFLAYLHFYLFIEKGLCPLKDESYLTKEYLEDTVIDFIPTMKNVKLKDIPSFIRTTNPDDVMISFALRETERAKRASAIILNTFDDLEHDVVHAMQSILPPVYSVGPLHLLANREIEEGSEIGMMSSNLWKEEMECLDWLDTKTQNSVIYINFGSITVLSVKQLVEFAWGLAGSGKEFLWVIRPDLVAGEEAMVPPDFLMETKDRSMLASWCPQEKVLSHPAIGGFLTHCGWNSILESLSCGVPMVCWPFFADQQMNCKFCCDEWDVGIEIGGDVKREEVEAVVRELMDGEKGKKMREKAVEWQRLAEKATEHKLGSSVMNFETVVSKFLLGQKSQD
Nature of the assay: Glycosylation activity of UGT85A1 on sugar acceptors, LC-MS. The class given is biochemical. Conditions: for relative activity of UGT85A1 on sugar acceptors (in words, FIG. 12): measured per unit reaction time (5 minutes); for glycosylated product of UGT85A1 reaction detected (FIG. 11): same manner as Example 4, LC-MS. The method, then: (§1) Standard enzyme reaction conditions are as follows.
(§2) The enzyme reaction solution (5 μl) was analyzed by LC-MS under the following conditions.
In the same manner as shown in Example 4, linalool, 8-hydroxylinalool, geraniol and 8-hydroxygeraniol were used as sugar acceptors for activity measurement.

Assay [3] addresses T1, UGT85A3. The settings on record: 8-hydroxygeraniol as sugar acceptor; fraction of the UDP-glucose level. Here is the method:
as §1, §2

Turning to `C/C(=C\CC/C(C)=C/CO)CO` [8-hydroxygeraniol, 8-Hydroxygeraniol], the “glycosylation activity of UGT85A3 on the sugar acceptor (product detected by LC-MS)” value (from here on “glycosylation activity of UGT85A3”) in assay [1] is “a peak with a molecular weight suggesting addition of one glucose molecule was obtained”. The “activity of UGT85A3 on the 8-hydroxylated form compared with geraniol / linalool (FIG. 7)” value in assay [1] (UDP-glucose as sugar donor, product yields compared) is recorded as “higher activity”. For the same compound, in assay [2] (highest activity set to 100%, FIG. 12), the “sugar acceptor selectivity of UGT85A1 (relative activity)” value was found to be 100%. In assay [2], the “relative activity of UGT85A1 on sugar acceptors (in words, FIG. 12)” value (from here on “relative activity of UGT85A1”) was “higher activity” and the “glycosylated product of UGT85A1 reaction detected (FIG. 11)” value (shortened to “glycosylated product”) is listed as “glycosylated products were detected”.

In the case of `O=c1cc(-c2ccc(O)cc2)oc2cc(O)cc(O)c12` [Apigenin], the “glycosylation activity of UGT85A3” value in assay [1] is reported as “no glycosylation activity”.

As to `O=c1ccc2cc(O)c(O)cc2o1` [Esculetin], the “glycosylation activity of UGT85A3” value in assay [1] is reported as “no glycosylation activity”.

Take `O=C1C[C@@H](c2ccc(O)cc2)Oc2cc(O)cc(O)c21` [Naringenin]: the “glycosylation activity of UGT85A3” value in assay [1] was “no glycosylation activity”.

Regarding `O=c1c(O)c(-c2ccc(O)c(O)c2)oc2cc(O)cc(O)c12` [Quercetin], in assay [1], the “glycosylation activity of UGT85A3” value was “no glycosylation activity”.

Regarding `CC(C)=CCCC(C)CCO` (stereo not shown) [citronellol], in assay [1], the “glycosylation activity of UGT85A3” value is reported as “glycosylation activity”.

With `CC(C)=CCC/C(C)=C/CO` [geraniol], in assay [2], the “relative activity of UGT85A1” value is “higher selectivity for geraniol than linalool” and the “glycosylated product” value is on record as “glycosylated products were detected”.

As to `C=CC(C)(O)CCC=C(C)C` (stereo not shown) [linalool], in assay [2], the “relative activity of UGT85A1” value is on record as “very low relative activity” and the “glycosylated product” value is on record as “glycosylated products were detected”.

For `C=CC(C)(O)CCC=C(C)CCC=C(C)C` (stereo not shown) [nerolidol], the “glycosylation activity of UGT85A3” value in assay [1] was “glycosylation activity”.

Take UDP-gluconic acid: the “product level with the sugar donor relative to that with UDP-glucose (FIG. 8)” value in assay [3] is reported as “less than 1/10”.
